Experimental findings from US20160331662A1, “Compositions that Inhibit and Prevent the Formation of Dental Caries and Methods of Using the Same” (priority 2014, published 2016) are described below.

Test [1] deals with adhesion of AgI/II of S. mutans to iSRCR123. Briefly: Adherence/inhibition SPR: AgI/II fragments on immobilized iSRCR123. It counts as binding. How it is done:
(§1) Carbohydrates Galβ1-3-GalNac and Mannose (identified from glycan profile analysis) at different concentrations (0.010, 0.050, 0.1, 0.5 and 1 mM) were incubated with 2 μM of each FL, A3VP1 and C123 of AgI/II and SspB and the interaction with immobilized iSRCR1 and iSRCR123 with running buffer containing 20 mM HEPES, 150 mM NaCl and 2.5 mM CaCl2, pH 7.4 at 25° C. and with flow rate of 20 μl/min was analyzed. Direct adherence of these carbohydrates alone served as the control and all calculations were carried out using the BIAevaluation software. Using the same protocol above at varying concentrations the effect of SRCRP2 peptide on the adherence inhibition was assessed.

Test [2] concerns adhesion of SspB of S. gordonii to iSRCR123. Briefly: Adherence/inhibition SPR: SspB fragments on immobilized iSRCR123. It counts as binding. How it is done: as §1
In test [3] the target is T1, Pas adherence to immobilized salivary agglutinin (Streptococcus intermedius, UniProt Q9KW51).
T1 construct: Recombinant full length (FL) constructs of surface proteins (homologs of AgI/II) AgI/II, SspB, Pas; made in house
Nature of the test: SPR inhibition of SAG adherence of FL surface protein (Example 2). It is filed as binding, S. intermedius. The conditions noted are these: 2 mM. The method, then:
(§2) Inhibition of SAG adherence to AgI/II, SspB, Pas, along with glucan binding protein C (GbpC) and collagen binding protein (rcnM) by Galβ1-3GalNac (core-1) was determined as is described in Example 1 and as described below.
(§3) Recombinant full length (FL) constructs of surface proteins (homologs of AgI/II) AgI/II, SspB, Pas, along with GbpC (Glucan binding protein C) and rcnM (collagen binding protein) were incubated with various concentrations (0.010 mM to 2 mM) of Galβ1-3GalNac at room temperature and their binding interaction with immobilized salivary agglutinin on a CM5 sensor chip was determined.

Test [4] deals with adhesion of AgI/II of S. mutans to iSRCR1. Briefly: Adherence/inhibition SPR: AgI/II fragments on immobilized iSRCR1. It counts as binding. How it is done: as §1
The subject of test [5] is rcnM (collagen binding protein) adherence to immobilized salivary agglutinin. Nature of the test: SPR inhibition of SAG adherence of FL surface protein (Example 2). The conditions noted are these: 2 mM. The method, then: as §2, §3
The target in test [6] is T2, SspB adherence to immobilized salivary agglutinin (Streptococcus gordonii, UniProt A8AUS1).
T2 construct: (39-1433) (NotI) Reverse; made in house; host or cells: pET23d vector
The description is as above. It is filed as binding, S. gordonii. As to conditions: 2 mM. How it is done:
as §2, §3

Test [7] concerns the target T3, SAG (Homo sapiens, UniProt Q9UGM3).
T3 construct: from tissue; host or cells: saliva (purified SAG, gift)
Briefly: SPR binding of analytes to immobilized SAG. The conditions noted are these: 2 mM, control experiment. The method, then:
(§4) Real time binding analyses of the SRCR domains with AgI/II fragments were carried out using the BIAcore 2000 system. […] Self association of iSRCR1 or iSRCR123 (at 2 μM) were also determined in a similar manner as described above. Finally to determine the effect of calcium SPR analysis was carried out by dialyzing the analytes and ligands in binding buffer devoid of CaCl2.
(§5) In addition, the SRCR holding two distinct surfaces compounded the elucidation of individual kinetics, and presently there are no modeling protocols available to determine the individual affinities for such a system, therefore for simplicity we have utilized a single site 1:1 Langmuir model. All experiments were carried out in triplicates and the kinetics of the association (KA) and dissociation (KD) rate constants were deduced using the 1:1 Langmuir Kinetic model on the BIA-Evaluation software. The concentration (C in μM) of analyte (FL^AgI/II or FL^SspB at 2 μM) that adhered to the immobilized ligand (iSRCR1, iSRCR123) within the flow cell was calculated using the formula C=(RU/MW)×(1/V), where RU is resonance unit (1 RU=1 pg of bound protein), MW is molecular weight of analyte and V is volume of flow cell (1.2×10^−10 L).
A general note: Surface plasmon resonance follows binding to a sensor surface in real time, without labels.

The target in test [8] is T4, AgI/II adherence to immobilized salivary agglutinin (Streptococcus mutans serotype c, UniProt P23504).
T4 construct: Recombinant full length (FL) constructs of surface proteins (homologs of AgI/II) AgI/II, SspB, Pas; made in house
T4 sequence (P23504 39-1562): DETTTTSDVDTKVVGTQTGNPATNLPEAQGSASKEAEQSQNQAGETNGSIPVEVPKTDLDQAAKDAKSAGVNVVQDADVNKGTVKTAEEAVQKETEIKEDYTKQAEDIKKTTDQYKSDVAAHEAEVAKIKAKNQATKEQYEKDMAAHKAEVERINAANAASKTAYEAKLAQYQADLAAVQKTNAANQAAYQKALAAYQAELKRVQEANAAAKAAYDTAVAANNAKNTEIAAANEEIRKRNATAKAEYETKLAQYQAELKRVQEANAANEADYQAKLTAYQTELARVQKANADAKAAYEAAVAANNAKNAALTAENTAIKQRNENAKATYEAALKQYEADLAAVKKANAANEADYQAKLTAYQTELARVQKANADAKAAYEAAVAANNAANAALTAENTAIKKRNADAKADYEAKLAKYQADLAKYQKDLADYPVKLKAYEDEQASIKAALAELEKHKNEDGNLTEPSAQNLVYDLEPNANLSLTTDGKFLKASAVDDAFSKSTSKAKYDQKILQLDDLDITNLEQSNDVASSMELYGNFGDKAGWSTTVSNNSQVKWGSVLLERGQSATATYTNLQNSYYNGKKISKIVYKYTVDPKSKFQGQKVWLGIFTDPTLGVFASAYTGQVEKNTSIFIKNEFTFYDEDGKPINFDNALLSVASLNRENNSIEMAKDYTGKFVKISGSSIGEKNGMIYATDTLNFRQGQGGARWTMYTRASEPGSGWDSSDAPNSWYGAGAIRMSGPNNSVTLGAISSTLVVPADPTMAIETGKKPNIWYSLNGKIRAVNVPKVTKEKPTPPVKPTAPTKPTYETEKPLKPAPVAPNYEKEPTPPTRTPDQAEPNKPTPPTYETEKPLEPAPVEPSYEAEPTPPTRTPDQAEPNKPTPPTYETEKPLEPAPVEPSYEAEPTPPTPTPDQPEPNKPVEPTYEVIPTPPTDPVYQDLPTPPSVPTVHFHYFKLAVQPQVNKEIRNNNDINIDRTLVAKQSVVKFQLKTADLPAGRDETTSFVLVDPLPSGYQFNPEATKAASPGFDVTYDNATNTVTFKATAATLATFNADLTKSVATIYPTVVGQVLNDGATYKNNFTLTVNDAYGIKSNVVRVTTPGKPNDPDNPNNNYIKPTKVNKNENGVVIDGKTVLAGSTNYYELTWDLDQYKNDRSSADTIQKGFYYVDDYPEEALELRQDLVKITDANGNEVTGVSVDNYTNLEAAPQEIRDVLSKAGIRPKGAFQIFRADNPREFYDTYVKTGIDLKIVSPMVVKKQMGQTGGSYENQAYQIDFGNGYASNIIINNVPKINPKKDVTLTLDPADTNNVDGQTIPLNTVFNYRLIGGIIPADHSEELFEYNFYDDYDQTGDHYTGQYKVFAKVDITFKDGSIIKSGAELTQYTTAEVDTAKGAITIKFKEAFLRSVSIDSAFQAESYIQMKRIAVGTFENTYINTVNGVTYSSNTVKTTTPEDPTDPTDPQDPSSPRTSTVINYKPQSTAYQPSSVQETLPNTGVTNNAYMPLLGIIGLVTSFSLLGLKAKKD
Briefly: SPR inhibition of SAG adherence of FL surface protein (Example 2). The conditions noted are these: 2 mM. It is filed as binding, S. mutans. How it is done:
as §2, §3

Test [9] concerns the target T5, iSRCR1 (Homo sapiens, UniProt Q9UGM3).
T5 construct: strongly proves that a single SRCR domain contains the adherence sites for AgI/II and SspB; made in house; host or cells: Drosophila expression system
Briefly: SPR binding of analytes to immobilized iSRCR1 (CM5 chip, 1:1 Langmuir). As to conditions: substance alone over CM5 chip. How it is done: as §4, §5

The target of test [10] is T6, iSRCR123 (Homo sapiens, UniProt Q9UGM3).
T6 construct: multiple SRCR domains have better adherence capability compared to that of a single SRCR domain; made in house; host or cells: Drosophila expression system
T6 sequence (Q9UGM3 102-463 limits assumed): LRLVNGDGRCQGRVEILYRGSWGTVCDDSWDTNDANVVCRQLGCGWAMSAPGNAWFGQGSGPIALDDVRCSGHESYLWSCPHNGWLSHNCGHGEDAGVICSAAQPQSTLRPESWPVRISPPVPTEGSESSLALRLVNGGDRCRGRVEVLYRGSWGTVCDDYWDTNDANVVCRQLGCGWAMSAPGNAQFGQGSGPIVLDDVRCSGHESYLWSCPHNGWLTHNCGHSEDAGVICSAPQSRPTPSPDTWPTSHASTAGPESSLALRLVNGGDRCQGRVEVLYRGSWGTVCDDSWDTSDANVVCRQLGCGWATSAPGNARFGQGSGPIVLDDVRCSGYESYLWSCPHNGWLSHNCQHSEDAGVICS
Briefly: SPR binding of analytes to immobilized iSRCR123 (CM5 chip, 1:1 Langmuir). The conditions noted are these: substance alone over CM5 chip. The method, then: as §4, §5

The subject of test [11] is adhesion of SspB of S. gordonii to iSRCR1. It counts as binding. As to conditions: lower concentrations 0.010 mM-0.500 mM. The method, then:
as §1

The target of test [12] is T7, adhesion of SspB of S. gordonii to iSRCR1 (Streptococcus gordonii, UniProt A8AUS1).
T7 construct: made in house; host or cells: pET23d vector
It is filed as binding. As to conditions: 2 μM protein. How it is done: as §1

Test [13] concerns GbpC (Glucan binding protein C) adherence to immobilized salivary agglutinin. Briefly: SPR inhibition of SAG adherence of FL surface protein (Example 2). Set-up: species or system S. mutans. The conditions noted are these: 2 mM. The method, then: as §2, §3
For test [14], the target named is T8, AgI/II of S. mutans (Streptococcus mutans serotype c, UniProt P23504).
T8 construct: Recombinant full length (FL) constructs of surface proteins (homologs of AgI/II) AgI/II, SspB, Pas; made in house
T8 sequence (P23504 39-1562): as the sequence (P23504 39-1562) above
Briefly: ELISA binding of fluorescent tagged SRCRP2 peptide. The conditions noted are these: FAM-labelled peptide. Background: An ELISA detects its analyte on a solid surface through an enzyme-linked reagent.

Test [15] addresses SspB of S. gordonii (Streptococcus gordonii, UniProt A8AUS1). The conditions noted are these: FAM-labelled peptide.
Test [16] deals with S. mutans UA159. Nature of the test: Aggregation assay (OD700 over 60 min). It counts as cell-based. The method, then: (§6) Aggregation assays were performed as described earlier with slight modifications. Briefly, S. mutans UA159 and S. gordonii DL1 cells were grown in TSY broth media overnight at 37° C. in the presence of 5% CO2. The bacteria were centrifuged at 5000×g and washed with a buffer containing 20 mM HEPES pH 7.4, 150 mM NaCl and re-suspended to an approximate OD700 of 1. The bacterial suspension (900 μl) was mixed with 100 μl of SAG or iSRCR1 (10 μM) or iSRCR123 ([…]) or commercially synthesized (Think Peptides, Inc) SRCRP2 peptide with fluorescein amidite (FAM) at the carboxyl end ([…]-[FAM]) (SEQ ID NO:9, at both 400 μg/ml and 1 mg/ml) in the presence of 6 mM CaCl2 and aggregation was measured by recording OD700over 60 min at 5 min intervals, where the buffer alone was used as control. All experiments were carried out at least five times, and the results were analyzed with One-way ANOVA. Post-hoc testing where *, P<0.05 was considered statistically significant and results were presented as the percentage of cells aggregated.

The test system of test [17] is S. gordonii DL1. Nature of the test: Aggregation assay (OD700 over 60 min). It counts as cell-based. The method, then: as §6
The mark [18] stands for this setting: lower concentrations 0.010 mM-0.500 mM.
Setting [19] is: peptide at lower concentration (400 μg/ml).

T5 sequence (Q9UGM3 102-202 limits assumed): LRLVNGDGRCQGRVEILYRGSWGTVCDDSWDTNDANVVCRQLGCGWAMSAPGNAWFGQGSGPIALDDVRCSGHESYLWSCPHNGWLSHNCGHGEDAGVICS
SspB of S. gordonii, sequence (A8AUS1 39-1433): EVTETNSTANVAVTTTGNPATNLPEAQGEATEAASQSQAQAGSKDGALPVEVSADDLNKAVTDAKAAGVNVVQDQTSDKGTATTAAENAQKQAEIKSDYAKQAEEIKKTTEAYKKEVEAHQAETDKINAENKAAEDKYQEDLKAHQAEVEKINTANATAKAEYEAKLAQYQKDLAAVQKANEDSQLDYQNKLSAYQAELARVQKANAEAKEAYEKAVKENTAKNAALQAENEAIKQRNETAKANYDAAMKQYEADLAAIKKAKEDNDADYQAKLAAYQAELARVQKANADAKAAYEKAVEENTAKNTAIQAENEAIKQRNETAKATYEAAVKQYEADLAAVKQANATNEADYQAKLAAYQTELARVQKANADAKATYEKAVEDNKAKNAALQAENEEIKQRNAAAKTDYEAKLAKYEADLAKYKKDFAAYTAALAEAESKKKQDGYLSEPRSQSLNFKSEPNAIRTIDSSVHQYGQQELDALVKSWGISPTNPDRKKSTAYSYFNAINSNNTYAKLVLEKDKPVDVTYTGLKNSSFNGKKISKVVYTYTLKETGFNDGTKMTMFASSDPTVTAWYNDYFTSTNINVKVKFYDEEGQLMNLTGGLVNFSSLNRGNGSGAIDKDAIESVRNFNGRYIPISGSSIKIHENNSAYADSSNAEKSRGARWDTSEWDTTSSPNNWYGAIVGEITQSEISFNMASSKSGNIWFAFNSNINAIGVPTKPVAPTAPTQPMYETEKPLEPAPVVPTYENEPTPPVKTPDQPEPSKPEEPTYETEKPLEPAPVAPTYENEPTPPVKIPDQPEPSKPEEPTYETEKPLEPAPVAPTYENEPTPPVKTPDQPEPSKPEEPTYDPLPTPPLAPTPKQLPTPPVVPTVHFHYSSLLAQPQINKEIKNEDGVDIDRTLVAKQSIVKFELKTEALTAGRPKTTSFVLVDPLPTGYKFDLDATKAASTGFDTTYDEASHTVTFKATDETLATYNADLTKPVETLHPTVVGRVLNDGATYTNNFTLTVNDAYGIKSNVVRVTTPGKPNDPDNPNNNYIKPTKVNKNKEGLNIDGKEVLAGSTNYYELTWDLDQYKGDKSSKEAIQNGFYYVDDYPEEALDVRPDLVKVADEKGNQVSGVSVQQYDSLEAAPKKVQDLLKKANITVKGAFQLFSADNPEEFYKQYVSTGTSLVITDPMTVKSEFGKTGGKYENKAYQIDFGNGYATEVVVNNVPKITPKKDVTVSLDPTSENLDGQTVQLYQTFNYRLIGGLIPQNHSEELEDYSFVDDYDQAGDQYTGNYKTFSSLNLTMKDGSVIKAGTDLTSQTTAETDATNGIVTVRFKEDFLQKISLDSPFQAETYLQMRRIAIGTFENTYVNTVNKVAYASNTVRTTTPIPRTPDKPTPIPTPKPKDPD

As for `CC(=O)N[C@H]1C(O)O[C@H](CO)[C@H](O)[C@@H]1O[C@@H]1O[C@H](CO)[C@H](O)[C@H](O)[C@H]1O` (some centres unmarked) [Galβ1-3-GalNac], in test [1] (1.0 mM, 2 μM protein), the “inhibition of adhesion of A3VP1^AgI/II to iSRCR123” value amounted to 75%, the “inhibition of adhesion of C123^AgI/II to iSRCR123” value is reported as 47% and the “inhibition of adhesion of FL^AgI/II to iSRCR123” value is reported as 73%. In addition, the “effect on adhesion of all AgI/II fragments with iSRCR123 (in words)” value in test [1] (setting [18]) is “enhanced the adhesion”. Further, in test [2] (1.0 mM, 2 μM protein), the “inhibition of adhesion of A3VP1^SspB to iSRCR123” value turned out to be 60%, the “inhibition of adhesion of C123^SspB to iSRCR123” value stood at 40% and the “inhibition of adhesion of FL^SspB to iSRCR123” value is given as 37%. For the same compound, the “effect on adhesion of all SspB fragments with iSRCR123 (in words)” value in test [2] (setting [18]) is “enhanced the adhesion”. In addition, the “inhibition of SAG adherence of Pas” value in test [3] was 28%. Also, in test [4] (1.0 mM, 2 μM protein), the “inhibition of adhesion of A3VP1^AgI/II to iSRCR1” value is listed as 79%, the “inhibition of adhesion of C123^AgI/II to iSRCR1” value is 73% and the “inhibition of adhesion of FL^AgI/II to iSRCR1” value is given as 85%. Also, the “effect on adhesion of all AgI/II fragments with iSRCR1 (in words)” value in test [4] (setting [18]) is on record as “enhanced the adhesion”. Besides, in test [5], the “inhibition of SAG adherence of rcnM” value is 69%. Also, the “inhibition of SAG adherence of SspB” value in test [6] amounted to 65%. The “direct adherence to SAG (in words)” value in test [7] is listed as “did not show direct adherence”. The “inhibition of SAG adherence of AgI/II” value in test [8] worked out at 94%. Also, in test [9], the “direct binding to immobilized iSRCR1 (in words)” value is on record as “did not have any interactions”. In addition, the “direct binding to immobilized iSRCR123 (in words)” value in test [10] is listed as “did not have any interactions”. For the same compound, the “effect on adhesion of all SspB fragments with iSRCR1 (in words)” value in [11] is recorded as “enhanced the adhesion”. In test [12] (1.0 mM), the “inhibition of adhesion of A3VP1^SspB to iSRCR1” value was 61%, the “inhibition of adhesion of C123^SspB to iSRCR1” value is 32% and the “inhibition of adhesion of FL^SspB to iSRCR1” value was found to be 64%. Besides, in [13], the “inhibition of SAG adherence of GBPC” value is given as 72%.

For the compound “QGRVEVLYRGSWGTVC [SRCRP2 peptide, reference compound]”, in [14], the “adherence to AgI/II and its subfragments by ELISA (in words)” value is reported as “adheres well”. Moreover, in test [1] (0.005 mM peptide, 2 μM protein), the “change in adherence of C123^AgI/II to iSRCR123” value is 7%, the “improvement of adherence of A3VP1^AgI/II to iSRCR123” value is 16% and the “improvement of adherence of FL^AgI/II to iSRCR123” value was found to be 8%. For the same compound, in test [15], the “adherence to SspB and its subfragments by ELISA (in words)” value is on record as “adheres well”. In test [2] (0.005 mM peptide, 2 μM protein), the “change in adherence of A3VP1^SspB to iSRCR123” value turned out to be 3%, the “change in adherence of C123^SspB to iSRCR123” value turned out to be 5% and the “improvement of adherence of FL^SspB to iSRCR123” value is listed as 91%. Also, in test [4] (0.005 mM peptide, 2 μM protein), the “change in adherence of C123^AgI/II to iSRCR1” value was 2.3%, the “improvement of adherence of A3VP1^AgI/II to iSRCR1” value was 13% and the “improvement of adherence of FL^AgI/II to iSRCR1” value was 8%. For the same compound, the “direct binding to immobilized iSRCR1 (in words)” value in test [9] was “did not show any binding”. Besides, in test [16] (peptide 1 mg/ml), the “percentage of cells aggregated” value worked out at 18%. The “percentage of cells aggregated” value in test [16] (setting [19]) was found to be 12%. Further, the “percentage of cells aggregated” value in test [17] (peptide 1 mg/ml) was 12%. For the same compound, in [17] (setting [19]), the “percentage of cells aggregated” value is 11%. The “direct binding to immobilized iSRCR123 (in words)” value in test [10] is on record as “did not show any binding”. In test [12] (0.005 mM peptide), the “change in adherence of A3VP1^SspB to iSRCR1” value was found to be 3%, the “change in adherence of C123^SspB to iSRCR1” value was 4% and the “improvement of adherence of FL^SspB to iSRCR1” value was determined as 97%.
